Source: ChEMBL document CHEMBL1649134, “Occurrence of efflux mechanism and cephalosporinase variant in a population of Enterobacter aerogenes and Klebsiella pneumoniae isolates producing extended-spectrum beta-lactamases” (2009)
Converted amounts (≈) assume the structure as drawn.

Key:
Klebsiella aerogenes [1] = experiment: Antimicrobial activity against multidrug resistant Enterobacter aerogenes isolate 18 by broth dilution method; format: functional
Escherichia coli [2] = experiment: microbe, parasite or virus in culture; details: DH5[alpha]
Description: Antimicrobial activity against multidrug resistant Escherichia coli DH5[alpha] by broth dilution method

Klebsiella aerogenes [3] = experiment: Antimicrobial activity against multidrug resistant Enterobacter aerogenes ATCC 15038 by broth dilution method; format: functional
Klebsiella aerogenes [4] = experiment: Antimicrobial activity against multidrug resistant Enterobacter aerogenes isolate 8 by broth dilution method; format: functional
Klebsiella aerogenes [5] = experiment: Antimicrobial activity against multidrug resistant Enterobacter aerogenes isolate 19 by broth dilution method; format: functional
Klebsiella aerogenes [6] = experiment: Antimicrobial activity against multidrug resistant Enterobacter aerogenes isolate 15 by broth dilution method; format: functional
Escherichia coli [7] = experiment: microbe, parasite or virus in culture; details: DH5[alpha]; remark: listed apart in the source
Description: Antimicrobial activity against multidrug resistant Escherichia coli DH5[alpha] harboring pACM204 plasmid by broth dilution method

Klebsiella aerogenes [8] = experiment: Antimicrobial activity against multidrug resistant Enterobacter aerogenes isolate 3 by broth dilution method; format: functional
Klebsiella pneumoniae [9] = experiment: Antimicrobial activity against multidrug resistant Klebsiella pneumoniae isolate 16 by broth dilution method; format: functional
Klebsiella aerogenes [10] = experiment: Antimicrobial activity against multidrug resistant Enterobacter aerogenes isolate 5 by broth dilution method; format: functional
Klebsiella pneumoniae [11] = experiment: Antimicrobial activity against multidrug resistant Klebsiella pneumoniae isolate 12 by broth dilution method; format: functional
Klebsiella aerogenes [12] = experiment: Antimicrobial activity against multidrug resistant Enterobacter aerogenes isolate 2 by broth dilution method; format: functional
Klebsiella aerogenes [13] = experiment: Antimicrobial activity against multidrug resistant Enterobacter aerogenes isolate 1 by broth dilution method; format: functional
Klebsiella pneumoniae [14] = experiment: Antimicrobial activity against multidrug resistant Klebsiella pneumoniae isolate 10 by broth dilution method; format: functional
Klebsiella aerogenes [15] = experiment: Antimicrobial activity against multidrug resistant Enterobacter aerogenes isolate 23 by broth dilution method; format: functional
Escherichia coli [16] = experiment: microbe, parasite or virus in culture; details: ATCC 35218
Description: Antimicrobial activity against multidrug resistant Escherichia coli ATCC 35218 harboring pDrive plasmid by broth dilution method

Klebsiella aerogenes [17] = experiment: Antimicrobial activity against multidrug resistant Enterobacter aerogenes isolate 6 by broth dilution method; format: functional
Klebsiella aerogenes [18] = experiment: Antimicrobial activity against multidrug resistant Enterobacter aerogenes isolate 20 by broth dilution method; format: functional
Klebsiella pneumoniae [19] = experiment: Antimicrobial activity against multidrug resistant Klebsiella pneumoniae isolate 3 by broth dilution method; format: functional
Klebsiella aerogenes [20] = experiment: Antimicrobial activity against multidrug resistant Enterobacter aerogenes isolate 24 by broth dilution method; format: functional
Klebsiella pneumoniae [21] = experiment: Antimicrobial activity against multidrug resistant Klebsiella pneumoniae isolate 8 by broth dilution method; format: functional
Klebsiella pneumoniae [22] = experiment: Antimicrobial activity against multidrug resistant Klebsiella pneumoniae isolate 1 by broth dilution method; format: functional
Klebsiella pneumoniae [23] = experiment: Antimicrobial activity against multidrug resistant Klebsiella pneumoniae isolate 6 by broth dilution method; format: functional
Klebsiella aerogenes [24] = experiment: Antimicrobial activity against multidrug resistant Enterobacter aerogenes isolate 10 by broth dilution method; format: functional
Klebsiella pneumoniae [25] = experiment: Antimicrobial activity against multidrug resistant Klebsiella pneumoniae isolate 15 by broth dilution method; format: functional
Klebsiella aerogenes [26] = experiment: Antimicrobial activity against multidrug resistant Enterobacter aerogenes isolate 26 by broth dilution method; format: functional
Escherichia coli [27] = experiment: microbe, parasite or virus in culture; details: DH5[alpha]; remark: listed apart in the source
Description: Antimicrobial activity against multidrug resistant Escherichia coli DH5[alpha] harboring pDrive plasmid by broth dilution method

Klebsiella pneumoniae [28] = experiment: Antimicrobial activity against multidrug resistant Klebsiella pneumoniae isolate 2 by broth dilution method; format: functional
Klebsiella aerogenes [29] = experiment: Antimicrobial activity against multidrug resistant Enterobacter aerogenes isolate 4 by broth dilution method; format: functional
Klebsiella aerogenes [30] = experiment: Antimicrobial activity against multidrug resistant Enterobacter aerogenes isolate 22 by broth dilution method; format: functional
Escherichia coli [31] = experiment: microbe, parasite or virus in culture; details: DH5[alpha]; remark: listed apart in the source
Description: Antimicrobial activity against multidrug resistant Escherichia coli DH5[alpha] harboring pDrive plasmid expressing ampC gene by broth dilution method

Klebsiella aerogenes [32] = experiment: Antimicrobial activity against multidrug resistant Enterobacter aerogenes isolate 27 by broth dilution method; format: functional
Klebsiella aerogenes [33] = experiment: Antimicrobial activity against multidrug resistant Enterobacter aerogenes isolate 11 by broth dilution method; format: functional
Klebsiella aerogenes [34] = experiment: Antimicrobial activity against multidrug resistant Enterobacter aerogenes isolate 14 by broth dilution method; format: functional
Klebsiella aerogenes [35] = experiment: Antimicrobial activity against multidrug resistant Enterobacter aerogenes isolate 25 by broth dilution method; format: functional
Klebsiella aerogenes [36] = experiment: Antimicrobial activity against multidrug resistant Enterobacter aerogenes ATCC 15038 harboring pDrive plasmid expressing ampC gene by broth dilution method; format: functional
Klebsiella pneumoniae [37] = experiment: Antimicrobial activity against multidrug resistant Klebsiella pneumoniae isolate 4 by broth dilution method; format: functional
Klebsiella pneumoniae [38] = experiment: Antimicrobial activity against multidrug resistant Klebsiella pneumoniae isolate 14 by broth dilution method; format: functional
Klebsiella aerogenes [39] = experiment: Antimicrobial activity against multidrug resistant Enterobacter aerogenes isolate 13 by broth dilution method; format: functional
Klebsiella aerogenes [40] = experiment: Antimicrobial activity against multidrug resistant Enterobacter aerogenes ATCC 15038 harboring pDrive plasmid by broth dilution method; format: functional
Klebsiella aerogenes [41] = experiment: Antimicrobial activity against multidrug resistant Enterobacter aerogenes isolate 9 by broth dilution method; format: functional
Klebsiella aerogenes [42] = experiment: Antimicrobial activity against multidrug resistant Enterobacter aerogenes isolate 21 by broth dilution method; format: functional
Escherichia coli [43] = experiment: Antimicrobial activity against multidrug resistant Escherichia coli ATCC 35218 by broth dilution method; format: functional
Klebsiella pneumoniae [44] = experiment: Antimicrobial activity against multidrug resistant Klebsiella pneumoniae isolate 5 by broth dilution method; format: functional
Klebsiella pneumoniae [45] = experiment: Antimicrobial activity against multidrug resistant Klebsiella pneumoniae isolate 11 by broth dilution method; format: functional
Klebsiella aerogenes [46] = experiment: Antimicrobial activity against multidrug resistant Enterobacter aerogenes isolate 16 by broth dilution method; format: functional
Klebsiella aerogenes [47] = experiment: Antimicrobial activity against multidrug resistant Enterobacter aerogenes ATCC 15038 harboring pACM204 plasmid by broth dilution method; format: functional
Klebsiella aerogenes [48] = experiment: Antimicrobial activity against multidrug resistant Enterobacter aerogenes isolate 17 by broth dilution method; format: functional
Klebsiella pneumoniae [49] = experiment: Antimicrobial activity against multidrug resistant Klebsiella pneumoniae isolate 9 by broth dilution method; format: functional
Escherichia coli [50] = experiment: microbe, parasite or virus in culture; details: ATCC 35218; remark: listed apart in the source
Description: Antimicrobial activity against multidrug resistant Escherichia coli ATCC 35218 harboring pDrive plasmid expressing ampC gene by broth dilution method

Klebsiella pneumoniae [51] = experiment: Antimicrobial activity against multidrug resistant Klebsiella pneumoniae ATCC 11296 by broth dilution method; format: functional
Klebsiella aerogenes [52] = experiment: Antimicrobial activity against multidrug resistant Enterobacter aerogenes isolate 12 by broth dilution method; format: functional
Klebsiella aerogenes [53] = experiment: Antimicrobial activity against multidrug resistant Enterobacter aerogenes isolate 7 by broth dilution method; format: functional
Klebsiella pneumoniae [54] = experiment: Antimicrobial activity against multidrug resistant Klebsiella pneumoniae isolate 13 by broth dilution method; format: functional
Klebsiella pneumoniae [55] = experiment: Antimicrobial activity against multidrug resistant Klebsiella pneumoniae isolate 7 by broth dilution method; format: functional

CC(C)(O/N=C(\C(=O)N[C@@H]1C(=O)N2C(C(=O)[O-])=C(C[n+]3ccccc3)CS[C@H]12)c1csc(N)n1)C(=O)O [CEFTAZIDIME]
MIC (Klebsiella aerogenes [1]): 1020 µg/mL (≈ 1.87 mM) | MIC (Escherichia coli [2]): 2 µg/mL (≈ 0.00366 mM) | MIC (Klebsiella aerogenes [3]): 0.25 µg/mL (≈ 0.000457 mM) | MIC (Klebsiella aerogenes [4]): > 2050 µg/mL | MIC (Klebsiella aerogenes [5]): > 2050 µg/mL | MIC (Klebsiella aerogenes [6]): > 2050 µg/mL | MIC (Escherichia coli [7]): 32 µg/mL (≈ 0.0585 mM) | MIC (Klebsiella aerogenes [8]): > 2050 µg/mL | MIC (Klebsiella pneumoniae [9]): 2050 µg/mL (≈ 3.75 mM) | MIC (Klebsiella aerogenes [10]): > 2050 µg/mL | MIC (Klebsiella pneumoniae [11]): 16 µg/mL (≈ 0.0293 mM) | MIC (Klebsiella aerogenes [12]): > 2050 µg/mL | MIC (Klebsiella aerogenes [13]): > 2050 µg/mL | MIC (Klebsiella pneumoniae [14]): > 2050 µg/mL | MIC (Klebsiella aerogenes [15]): 2050 µg/mL (≈ 3.75 mM) | MIC (Escherichia coli [16]): 0.5 µg/mL (≈ 0.000915 mM) | MIC (Klebsiella aerogenes [17]): 256 µg/mL (≈ 0.468 mM) | MIC (Klebsiella aerogenes [18]): > 2050 µg/mL | MIC (Klebsiella pneumoniae [19]): > 2050 µg/mL | MIC (Klebsiella aerogenes [20]): > 2050 µg/mL | MIC (Klebsiella pneumoniae [21]): > 2050 µg/mL | MIC (Klebsiella pneumoniae [22]): 2050 µg/mL (≈ 3.75 mM) | MIC (Klebsiella pneumoniae [23]): 32 µg/mL (≈ 0.0585 mM) | MIC (Klebsiella aerogenes [24]): > 2050 µg/mL | MIC (Klebsiella pneumoniae [25]): > 2050 µg/mL | MIC (Klebsiella aerogenes [26]): 1020 µg/mL (≈ 1.87 mM) | MIC (Escherichia coli [27]): 2 µg/mL (≈ 0.00366 mM) | MIC (Klebsiella pneumoniae [28]): 2050 µg/mL (≈ 3.75 mM) | MIC (Klebsiella aerogenes [29]): > 2050 µg/mL | MIC (Klebsiella aerogenes [30]): > 2050 µg/mL | MIC (Escherichia coli [31]): 32 µg/mL (≈ 0.0585 mM) | MIC (Klebsiella aerogenes [32]): > 2050 µg/mL | MIC (Klebsiella aerogenes [33]): > 2050 µg/mL | MIC (Klebsiella aerogenes [34]): > 2050 µg/mL | MIC (Klebsiella aerogenes [35]): > 2050 µg/mL | MIC (Klebsiella aerogenes [36]): 64 µg/mL (≈ 0.117 mM) | MIC (Klebsiella pneumoniae [37]): > 2050 µg/mL | MIC (Klebsiella pneumoniae [38]): 16 µg/mL (≈ 0.0293 mM) | MIC (Klebsiella aerogenes [39]): > 2050 µg/mL | MIC (Klebsiella aerogenes [40]): 0.5 µg/mL (≈ 0.000915 mM) | MIC (Klebsiella aerogenes [41]): > 2050 µg/mL | MIC (Klebsiella aerogenes [42]): > 2050 µg/mL | MIC (Escherichia coli [43]): 0.125 µg/mL (≈ 0.000229 mM) | MIC (Klebsiella pneumoniae [44]): > 2050 µg/mL | MIC (Klebsiella pneumoniae [45]): > 2050 µg/mL | MIC (Klebsiella aerogenes [46]): > 2050 µg/mL | MIC (Klebsiella aerogenes [47]): 64 µg/mL (≈ 0.117 mM) | MIC (Klebsiella aerogenes [48]): > 2050 µg/mL | MIC (Klebsiella pneumoniae [49]): > 2050 µg/mL | MIC (Escherichia coli [50]): 16 µg/mL (≈ 0.0293 mM) | MIC (Klebsiella pneumoniae [51]): 0.5 µg/mL (≈ 0.000915 mM) | MIC (Klebsiella aerogenes [52]): > 2050 µg/mL | MIC (Klebsiella aerogenes [53]): > 2050 µg/mL | MIC (Klebsiella pneumoniae [54]): 16 µg/mL (≈ 0.0293 mM) | MIC (Klebsiella pneumoniae [55]): > 2050 µg/mL
